Data reported in patent US12331040B2 (Karyopharm Therapeutics Inc., priority 2013, dated 2025).
Like-named read-outs stand apart in the source and are kept apart here.

Columns and labels:
Format in all cases: cell-based
Colo-205 cells = experiment: MTT cell proliferation assay; details: Homo sapiens
Description: (§1) The MTT cell proliferation assay was used to study the cytotoxic properties of the compounds. The assay was performed according to the method described by Roche Molecular Biochemicals, with minor modifications. The assay is based on the cleavage of the tetrazolium salt, MTT, in the presence of an electron-coupling reagent. The water-insoluble formazan salt produced must be solubilized in an additional step. Cells grown in a 96-well tissue culture plate were incubated with the MTT solution for approximately 4 hours. After this incubation period, a water-insoluble formazan dye formed. After solubilization, the formazan dye was quantitated using a scanning multi-well spectrophotometer (ELISA reader). […] The cells were seeded at 5,000-10,000 cells in each well of 96-well plate in 100 μL of fresh culture medium and were allowed to attach overnight. The stock solutions of the compounds were diluted in 100 μL cell culture medium to obtain eight concentrations of each test compound, ranging from 1 nM to 30 μM. […] All optical densities were measured at 490 nm using a Vmax Kinetic Microplate Reader (Molecular Devices). In most cases, the assay was performed in duplicate and the results were presented as a mean percent inhibition to the negative control±SE. The following formula was used to calculate the percent of inhibition: Inhibition (%)=(1−(ODo/OD))×100.
(§2) The M24 cell line is derived from human melanoma cells. The U2OS cell line is a human osteosarcoma cell line expressing wild type p53 and Rb, but lacking p16. The MM1S cell line is a multiple myeloma cell line; the parent cell line, MM.1, was established from peripheral blood of a multiple myeloma patient who had become resistant to steroid-based therapy. The RPMI8226 cell line is derived from human B lymphocyte cells. NHDF cells are normal human dermal fibroblast cells. The MRC-5 cell line is derived from normal lung tissue of a fetus. The PC3 cell line is a human prostate cancer cell line. The DU-145 cell line is a human prostate cancer cell line. The MDA-MB-231 cell line is a human breast adenocarcinoma cell line. The MDA-MB-468 cell line is a human breast carcinoma cell line. HL-60 cells are human promyelocytic leukemia cells. Hep G2 cells are human hepatocellular carcinoma cells. HEP 3B cells are human hepatocellular carcinoma cells. The DLD-1 cell line is a colorectal adenocarcinoma cell line. The HCT-15 cell line is a human colon carcinoma cell line. The Colo-205 cell line is derived from a human adenocarcinoma of the colon. The LoVo cell line is a human colon adenocarcinoma cell line.

LoVo cells = experiment: MTT cell proliferation assay; details: Homo sapiens
Description: as §1, §2

HCT-15 cells = experiment: MTT cell proliferation assay; details: Homo sapiens
Description: as §1, §2

MDA-MB-468 cells = experiment: MTT cell proliferation assay; details: Homo sapiens
Description: as §1, §2

PC3 cells = experiment: MTT cell proliferation assay; details: Homo sapiens, PC-3
Description: as §1, §2

NHDF cells = experiment: MTT cell proliferation assay; details: Homo sapiens
Description: as §1, §2

U2OS cells = experiment: MTT cell proliferation assay; details: Homo sapiens
Description: as §1, §2

MM1S cells = experiment: MTT cell proliferation assay; details: Homo sapiens, MM1.S
Description: as §1, §2

DLD-1 cells = experiment: MTT cell proliferation assay; details: Homo sapiens
Description: as §1, §2

DU-145 cells = experiment: MTT cell proliferation assay; details: Homo sapiens
Description: as §1, §2

MDA-MB-231 cells = experiment: MTT cell proliferation assay; details: Homo sapiens
Description: as §1, §2

[1] = MTT cell proliferation assay; details: human, MRC-5 cells (normal fetal lung cell line); MRC-5 cells; 72-hour MTT
Description: as §1, §2

HT-29 cells = experiment: MTT cell proliferation assay; details: Homo sapiens, 72-hour MTT
Description: as §1
Compounds 504, 510, 525 and 585 were further tested against selected solid and hematological cancer cell lines and selected normal cell lines in a 72-hour MTT cell proliferation assay.

Z138 cells = experiment: MTT cell proliferation assay; details: Homo sapiens
Method in brief: (§3)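 Cytotoxicity was measured by MTT: OD490 of the solubilized formazan after roughly 4 h with MTT reagent, reported as mean percent inhibition relative to the negative control. Test compounds covered eight concentrations between 1 nM and 30 μM, added to 5,000–10,000 cells per well that had attached overnight.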

3T3 cells = experiment: MTT cell proliferation assay; details: Mus musculus
Method in brief: as §3

MS751 cells = experiment: MTT cell proliferation assay; details: Homo sapiens
Method in brief: as §3

[2] = Colo-205 cell line, read-out: MTT Assay IC50, Colo-205
[3] = Colo-205 cells, 72-hour MTT, read-out: Colo-205 MTT IC50
[4] = LoVo cell line, read-out: MTT Assay IC50, LoVo
[5] = LoVo cells, 72-hour MTT, read-out: LoVo MTT IC50
[6] = HCT-15 cell line, read-out: MTT Assay IC50, HCT-15
[7] = HCT-15 cells, 72-hour MTT, read-out: HCT-15 MTT IC50
[8] = MDA-MB-468 cell line, read-out: MTT Assay IC50, MDA-MB-468
[9] = MDA-MB-468 cells, 72-hour MTT, read-out: MDA-MB-468 MTT IC50
[10] = PC3 cells, 72-hour MTT, read-out: PC3 MTT IC50
[11] = NHDF cell line, read-out: MTT Assay IC50, NHDF
[12] = NHDF cells, 72-hour MTT, read-out: NHDF MTT IC50
[13] = U2OS cell line, read-out: MTT Assay IC50, U2OS
[14] = U2OS cells, 72-hour MTT, read-out: U2OS MTT IC50
[15] = MM1S cell line, read-out: MTT Assay IC50, MM1S
[16] = MM1S cells, 72-hour MTT, read-out: MM1S MTT IC50
[17] = DLD-1 cell line, read-out: MTT Assay IC50, DLD-1
[18] = DLD-1 cells, 72-hour MTT, read-out: DLD-1 MTT IC50
[19] = DU-145 cell line, read-out: MTT Assay IC50, DU-145
[20] = DU-145 cells, 72-hour MTT, read-out: DU-145 MTT IC50
[21] = MDA-MB-231 cell line, read-out: MTT Assay IC50, MDA-MB-231
[22] = MDA-MB-231 cells, 72-hour MTT, read-out: MDA-MB-231 MTT IC50
[23] = Z-138, 72 h, Z-138 cells, 72-hour MTT, read-out: Z-138 MTT IC50
[24] = Z-138, Z138 cells, approximately 64-72 hours incubation, read-out: MTT Assay IC50 Z-138
[25] = NIH3T3, 72-hour MTT, read-out: 3T3 MTT IC50
[26] = NIH3T3, approximately 64-72 hours incubation, read-out: MTT Assay IC50 3T3
[27] = MS751, 72 h, MS751 cells, 72-hour MTT, read-out: MS751 MTT IC50
[28] = MS751, MS751 cells, approximately 64-72 hours incubation, read-out: MTT Assay IC50 MS-751

Structure (SMILES) | IC50 (Colo-205 cells; [2]) | IC50 (Colo-205 cells; [3]) | IC50 (LoVo cells; [4]) | IC50 (LoVo cells; [5]) | IC50 (HCT-15 cells; [7]) | IC50 (MDA-MB-468 cells; [9]) | IC50 (PC3 cells; [10]) | IC50 (NHDF cells; [12]) | IC50 (U2OS cells; [14]) | IC50 (MM1S cells; [16]) | IC50 (DLD-1 cells; [18]) | IC50 (DU-145 cells; [20]) | IC50 (MDA-MB-231 cells; [22]) | IC50 at 72 h [1] | IC50 (Z138 cells; [23]) | IC50 (Z138 cells; [24]) | IC50 (3T3 cells; [25]) | IC50 (3T3 cells; [26]) | IC50 (MS751 cells; [27]) | IC50 (MS751 cells; [28]) | also measured
Nc1ccc(/C=C/C(=O)NCc2cc3cc(-c4ccc(C(=O)N5CCOCC5)cc4)cc(C(F)(F)F)c3o2)cn1 [Compound 510, (E)-3-(6-aminopyridin-3-yl)-N-((5-(4-(morpholine-4-carbonyl)phenyl)-7-(trifluoromethyl)benzofuran-2-yl)methyl)acrylamide] | 100 to 5000 nM | 160 nM | 100 to 5000 nM | 230 nM | 1270 nM | 30 nM | 20 nM | 80 nM | 8 nM | 90 nM | 950 nM | 1470 nM | 1410 nM | 50 nM | 100 nM | < 100 nM | > 10000 nM | > 10000 nM | 100 nM | 100 to 5000 nM | IC50 (HCT-15 cells; [6]): 100 to 5000 nM; IC50 (MDA-MB-468 cells; [8]): < 100 nM; IC50 (NHDF cells; [11]): < 100 nM; IC50 (U2OS cells; [13]): < 100 nM; IC50 (MM1S cells; [15]): < 100 nM; IC50 (DLD-1 cells; [17]): 100 to 5000 nM; IC50 (DU-145 cells; [19]): 100 to 5000 nM; IC50 (MDA-MB-231 cells; [21]): 100 to 5000 nM; IC50 (HT-29 cells): 9310 nM
Nc1ccc(/C=C/C(=O)NCc2cc3cc(-c4ccc(C(=O)N5CCC(F)(F)CC5)cn4)cc(C(F)(F)F)c3o2)cn1 [Compound 585, (E)-3-(6-aminopyridin-3-yl)-N-((5-(5-(4,4-difluoropiperidine-1-carbonyl)pyridin-2-yl)-7-(trifluoromethyl)benzofuran-2-yl)methyl)acrylamide] | – | 170 nM | – | 260 nM | 270 nM | 200 nM | 140 nM | 5820 nM | 60 nM | 90 nM | 940 nM | 4900 nM | 1120 nM | 130 nM | 20 nM | < 100 nM | > 10000 nM | > 10000 nM | 100 nM | < 100 nM | –
Nc1ccc(/C=C/C(=O)NCc2cc3cc(-c4ccc(S(=O)(=O)N5CCOCC5)cc4)cc(Cl)c3o2)cn1 [Compound 504, (E)-3-(6-Aminopyridin-3-yl)-N-((7-chloro-5-(4-(morpholinosulfonyl)phenyl)benzofuran-2-yl)methyl)acrylamide] | < 100 nM | 80 nM | 100 to 5000 nM | 180 nM | 80 nM | 1000 nM | 50 nM | 60 nM | 40 nM | 290 nM | 110 nM | 80 nM | 220 nM | 20 nM | 10 nM | < 100 nM | 350 nM | 100 to 5000 nM | 30 nM | < 100 nM | IC50 (HCT-15 cells; [6]): < 100 nM; IC50 (MDA-MB-468 cells; [8]): 100 to 5000 nM; IC50 (PC3 cells; PC3 cell line, read-out: MTT Assay IC50, PC3): < 100 nM; IC50 (NHDF cells; [11]): < 100 nM; IC50 (U2OS cells; [13]): < 100 nM; IC50 (MM1S cells; [15]): 100 to 5000 nM; IC50 (DLD-1 cells; [17]): 100 to 5000 nM; IC50 (DU-145 cells; [19]): < 100 nM; IC50 (MDA-MB-231 cells; [21]): 100 to 5000 nM; IC50 (HT-29 cells): 480 nM
